≈ marks a conversion by molar mass, not a printed value.
Key:
Format in all cases: functional
[1] = system: Streptococcus; test: Antimicrobial activity against Beta-hemolytic Streptococcus by broth microdilution method
[2] = system: Streptococcus; test: Antimicrobial activity against viridans group Streptococcus assessed as percent susceptible isolate by broth microdilution method
[3] = system: Streptococcus; test: Antimicrobial activity against viridans group Streptococcus by broth microdilution method
[4] = system: Streptococcus; test: Antimicrobial activity against viridans group Streptococcus assessed as percent resistant isolates by broth microdilution method
[5] = system: Streptococcus; test: Antimicrobial activity against Beta-hemolytic Streptococcus assessed as percent susceptible isolate by broth microdilution method
[6] = system: Staphylococcus; test: Antimicrobial activity against Oxacillin-susceptible coagulase-negative Staphylococcus assessed as percent susceptible isolate by broth microdilution method
[7] = system: Staphylococcus aureus; test: Antimicrobial activity against Oxacillin-susceptible Staphylococcus aureus by broth microdilution method
[8] = system: Staphylococcus; test: Antimicrobial activity against Oxacillin-resistant coagulase-negative Staphylococcus assessed as percent resistant isolate by broth microdilution method
[9] = system: Staphylococcus aureus; test: Antimicrobial activity against Oxacillin-resistant Staphylococcus aureus assessed as percent resistant isolate by broth microdilution method
[10] = system: Staphylococcus; test: Antimicrobial activity against Oxacillin-susceptible coagulase-negative Staphylococcus by broth microdilution method
[11] = system: Staphylococcus; test: Antimicrobial activity against Oxacillin-susceptible coagulase-negative Staphylococcus assessed as percent resistant isolate by broth microdilution method
[12] = system: Staphylococcus aureus; test: Antimicrobial activity against Oxacillin-resistant Staphylococcus aureus by broth microdilution method
[13] = system: Staphylococcus aureus; test: Antimicrobial activity against Oxacillin-susceptible Staphylococcus aureus assessed as percent resistant isolates by broth microdilution method
[14] = system: Staphylococcus; test: Antimicrobial activity against Oxacillin-resistant coagulase-negative Staphylococcus assessed as percent susceptible isolate by broth microdilution method
[15] = system: Staphylococcus aureus; test: Antimicrobial activity against Oxacillin-susceptible Staphylococcus aureus assessed as percent susceptible isolate by broth microdilution method
[16] = system: Staphylococcus aureus; test: Antimicrobial activity against Oxacillin-resistant Staphylococcus aureus assessed as percent susceptible isolate by broth microdilution method
[17] = system: Enterococcus faecium; test: Antimicrobial activity against Vancomycin-susceptible Enterococcus faecium assessed as percent susceptible isolate by broth microdilution method
[18] = system: Enterococcus faecium; test: Antimicrobial activity against Vancomycin-susceptible Enterococcus faecium assessed as percent resistant isolates by broth microdilution method
[19] = system: Enterococcus faecium; test: Antimicrobial activity against Vancomycin-susceptible Enterococcus faecium by broth microdilution method
[20] = system: Enterococcus faecalis; test: Antimicrobial activity against Vancomycin-nonsusceptible Enterococcus faecalis by broth microdilution method
[21] = system: Enterococcus faecalis; test: Antimicrobial activity against Vancomycin-susceptible Enterococcus faecalis assessed as percent resistant isolates by broth microdilution method
[22] = system: Enterococcus faecalis; test: Antimicrobial activity against Vancomycin-nonsusceptible Enterococcus faecalis assessed as percent resistant isolates by broth microdilution method
[23] = system: Enterococcus faecalis; test: Antimicrobial activity against Vancomycin-susceptible Enterococcus faecalis by broth microdilution method
[24] = system: Enterococcus faecalis; test: Antimicrobial activity against Vancomycin-susceptible Enterococcus faecalis assessed as percent susceptible isolate by broth microdilution method
[25] = system: Enterococcus faecium; test: Antimicrobial activity against Vancomycin-nonsusceptible Enterococcus faecium by broth microdilution method
[26] = system: Enterococcus faecalis; test: Antimicrobial activity against Vancomycin-nonsusceptible Enterococcus faecalis assessed as percent susceptible isolate by broth microdilution method
[27] = system: Enterococcus faecium; test: Antimicrobial activity against Vancomycin-nonsusceptible Enterococcus faecium assessed as percent susceptible isolate by broth microdilution method
[28] = system: Staphylococcus; test: Antimicrobial activity against Oxacillin-resistant coagulase-negative Staphylococcus by broth microdilution method

| SMILES | MIC [1] [µg/mL] | MIC50 [1] [µg/mL] | MIC90 [1] [µg/mL] | Activity [2] [%] | MIC [3] [µg/mL] | MIC50 [3] [µg/mL] | MIC90 [3] [µg/mL] | Activity [4] [%] | Activity [5] [%] | Activity [6] [%] | MIC [7] [µg/mL] | MIC50 [7] [µg/mL] | MIC90 [7] [µg/mL] | Activity [8] [%] | Activity [9] [%] | MIC [10] [µg/mL] | MIC50 [10] [µg/mL] | MIC90 [10] [µg/mL] | Activity [14] [%] | Activity [15] [%] | other results |
| --- | --- | --- | --- | --- | --- | --- | --- | --- | --- | --- | --- | --- | --- | --- | --- | --- | --- | --- | --- | --- | --- |
| CO/N=C(\C(=O)N[C@@H]1C(=O)N2C(C(=O)O)=C(CSc3nc(=O)c(O)nn3C)CS[C@H]12)c1csc(N)n1 [CEFTRIAXONE] | 0.25 (≈ 0.451 µM) | 0.25 (≈ 0.451 µM) | 0.25 (≈ 0.451 µM) | 92.5 | 0.25 (≈ 0.451 µM) | 0.25 (≈ 0.451 µM) | 1 (≈ 1.8 µM) | 4.3 | 99.9 |  |  |  |  |  |  |  |  |  |  |  |  |
| CN(C)[C@@H]1C(O)=C(C(N)=O)C(=O)[C@@]2(O)C(O)=C3C(=O)c4c(O)cccc4[C@@](C)(O)[C@H]3C[C@@H]12 [TETRACYCLINE] |  |  |  |  |  |  |  |  |  | 86.7 | ≤ 4 | ≤ 4 | ≤ 4 | 15.8 | 18.4 | ≤ 4 | ≤ 4 | > 8 | 83.4 | 93.7 | Activity [11]: 12.6%; MIC90 [12]: > 8 µg/mL; Activity [13]: 5.8%; Activity [16]: 81.1% |
| O=C(O)c1cn(C2CC2)c2cc(N3CCNCC3)c(F)cc2c1=O [CIPROFLOXACIN] |  |  |  |  |  |  |  |  |  |  |  |  |  |  |  |  |  |  |  |  | Activity [17]: 8.1%; Activity [18]: 83.7%; MIC50 [19]: > 4 µg/mL; MIC90 [19]: > 4 µg/mL; MIC50 [20]: > 4 µg/mL; MIC90 [20]: > 4 µg/mL; Activity [21]: 33.6%; Activity [22]: 96.3%; MIC50 [23]: 1 µg/mL (≈ 3.02 µM); MIC90 [23]: > 4 µg/mL; Activity [24]: 62.2%; MIC50 [25]: > 4 µg/mL; MIC90 [25]: > 4 µg/mL; Activity [26]: 3.7%; Activity [27]: 0.7% |
| CN[C@H]1C(=O)N[C@@H]2Cc3ccc(cc3)Oc3cc4cc(c3O[C@@H]3O[C@H](C(=O)O)[C@@H](O)[C@H](O)[C@H]3NC(=O)CCCCCCCCC(C)C)Oc3ccc(cc3Cl)[C@@H](O)[C@@H]3NC(=O)[C@H](NC(=O)[C@@H]4NC(=O)[C@@H](NC2=O)c2cc(cc(O)c2Cl)Oc2cc1ccc2O)c1ccc(O)c(c1)-c1c(O[C@H]2O[C@H](CO)[C@@H](O)[C@H](O)[C@@H]2O)cc(O)cc1[C@@H](C(=O)NCCCN(C)C)NC3=O [DALBAVANCIN] | 0.03 (≈ 0.0165 µM) | 0.03 (≈ 0.0165 µM) | 0.03 (≈ 0.0165 µM) | 100 | 0.03 (≈ 0.0165 µM) | 0.03 (≈ 0.0165 µM) | 0.03 (≈ 0.0165 µM) |  | 100 | 99.8 |  | 0.06 (≈ 0.033 µM) | 0.06 (≈ 0.033 µM) |  |  | ≤ 0.03 | ≤ 0.03 | 0.06 (≈ 0.033 µM) | 99.2 | 100 | Activity [17]: 99.6%; MIC50 [19]: 0.06 µg/mL (≈ 0.033 µM); MIC90 [19]: 0.12 µg/mL (≈ 0.0661 µM); MIC90 [28]: 0.12 µg/mL (≈ 0.0661 µM); MIC50 [20]: > 4 µg/mL; MIC90 [20]: > 4 µg/mL; MIC [23]: ≤ 0.03 µg/mL; MIC50 [23]: ≤ 0.03 µg/mL; MIC90 [23]: 0.06 µg/mL (≈ 0.033 µM); Activity [24]: >99.9%; MIC50 [12]: 0.06 µg/mL (≈ 0.033 µM); MIC90 [12]: 0.06 µg/mL (≈ 0.033 µM); MIC50 [25]: > 4 µg/mL; MIC90 [25]: > 4 µg/mL; Activity [26]: 27.8%; Activity [27]: 11.4% |
| CC[C@H]1OC(=O)[C@H](C)[C@@H](O[C@H]2C[C@@](C)(OC)[C@@H](O)[C@H](C)O2)[C@H](C)[C@@H](O[C@@H]2O[C@H](C)C[C@H](N(C)C)[C@H]2O)[C@](C)(O)C[C@@H](C)C(=O)[C@H](C)[C@@H](O)[C@]1(C)O [ERYTHROMYCIN] | 0.25 (≈ 0.341 µM) | 0.25 (≈ 0.341 µM) | 2 (≈ 2.73 µM) | 56 | 0.25 (≈ 0.341 µM) | 0.25 (≈ 0.341 µM) | 2 (≈ 2.73 µM) | 41.7 | 79.6 | 66 | ≤ 0.25 | ≤ 0.25 | > 2 | 75.4 | 88.8 | ≤ 0.25 | ≤ 0.25 | > 2 | 24.1 | 78.7 | MIC50 [28]: > 2 µg/mL; Activity [11]: 33.6%; MIC50 [12]: > 2 µg/mL; Activity [13]: 20.7%; Activity [16]: 10.9% |
| CC1(C)S[C@@H]2[C@H](NC(=O)Cc3ccccc3)C(=O)N2[C@H]1C(=O)O [PENICILLIN G] | 0.015 (≈ 0.0449 µM) | 0.015 (≈ 0.0449 µM) | 0.06 (≈ 0.179 µM) | 71.7 |  | 0.06 (≈ 0.179 µM) | 1 (≈ 2.99 µM) | 6 | 99.9 |  |  |  |  |  |  |  |  |  |  |  |  |

Source: ChEMBL document CHEMBL1629667, “Activities of dalbavancin against a worldwide collection of 81,673 gram-positive bacterial isolates” (2009)
